Laboratory results from patent publication US20080026456A1, “Method and apparatus for reducing pathogens in a biological sample” (priority 2002, published 2008).

Tests used:
bovine sperm = test: Sperm viability with trypsin in density gradient (later studies)
[1] = test system: fresh semen of domestic bulls (Bos taurus) and gaur (Bos gaur) bulls; test: Sperm survival after Percoll column with trypsin, fresh bull and gaur semen; type: cell-based; conditions: 0.125% trypsin in 45% Percoll column
[2] = test system: confluent buffalo rat liver cell monolayers; test: Trypsin activity after dilution: detachment of confluent somatic cell monolayers; type: cell-based; conditions: final concentrations 0.125% and […]
[3] = test system: Brucella abortus Strain 19; type: cell-based
[4] = test system: Campylobacter fetus isolate [4914]; type: cell-based
[5] = test system: cultured cells and embryos; parameters: dose or concentration left out as unconfirmed; conditions: 37° C.; cited from earlier work
Mycoplasma species = conditions: without detrimentally affecting embryonic development in vitro; cited from earlier work

| Molecule | sensitivity of isolate to antibiotic [3] | sensitivity of isolate to antibiotic [4] | also measured |
| --- | --- | --- | --- |
| trypsin |  |  | effect of increasing trypsin concentration on sperm (bovine sperm): no detrimental effects; effect on sperm motility, viability, acrosomal integrity [1]: no detrimental affects; enzymatic activity after dilution with Percoll, Isolate or egg yolk-based cryodiluents [2]: did not diminish enzymatic activity |
| gentamicin | sensitive | sensitive |  |
| NC[C@H]1O[C@H](O[C@H]2[C@H](O)[C@@H](O[C@H]3O[C@H](CO)[C@@H](O)[C@H](N)[C@H]3O)[C@H](N)C[C@@H]2N)[C@H](O)[C@@H](O)[C@@H]1O [kanamycin] |  |  | toxicity to cultured cells and embryos [5]: very little toxicity |
| CN[C@@H]1[C@H](O)[C@H](NC)[C@H]2O[C@@]3(O)C(=O)C[C@@H](C)O[C@H]3O[C@@H]2[C@H]1O [spectinomycin] | sensitive | intermediate |  |
| CC[C@H]1OC(=O)C[C@@H](O)[C@H](C)[C@@H](O[C@@H]2O[C@H](C)[C@@H](O[C@H]3C[C@@](C)(O)[C@@H](O)[C@H](C)O3)[C@H](N(C)C)[C@H]2O)[C@@H](CC=O)C[C@@H](C)C(=O)/C=C/C(C)=C/[C@@H]1CO[C@@H]1O[C@H](C)[C@@H](O)[C@@H](OC)[C@H]1OC [tylosin] | intermediate | intermediate | minimal concentration for eliminating Mycoplasma species from bovine embryos (Mycoplasma species): 200 µg/mL |
| CCC[C@@H]1C[C@@H](C(=O)N[C@@H]([C@H]2O[C@H](SC)[C@H](O)[C@@H](O)[C@H]2O)[C@@H](C)O)N(C)C1 [lincomycin] | resistant | sensitive |  |
